System: KRAS PDC tumor spheroids (HUVEC+MSC), viability
Assay: Anticancer human tumor 254851-301-R-J1-PDC patient-derived colon carcinoma cell line growth inhibition [KRAS2]
Details: for IC50: curve of first compound; for viability, T/C: stronger effect = lower value
Outline: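 Combination screen of spheroid viability in tumor-cell co-cultures with endothelial (HUVEC) and mesenchymal stem cell stroma. Each agent was tested in half-log dilutions, topping at clinical Cmax or at 10 microM without a known Cmax.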

[1] = second compound 0.1 µM, first compound 0.0316 µM
[2] = second compound 0.1 µM, first compound 0.1 µM
[3] = second compound 0.316 µM, first compound 0.0316 µM
[4] = second compound 0.316 µM, first compound 0.1 µM
[5] = second compound 1 µM, first compound 0.0316 µM
[6] = second compound 1 µM, first compound 0.1 µM
[7] = second compound 3.16 µM, first compound 0.0316 µM
[8] = second compound 3.16 µM, first compound 0.1 µM
[9] = second compound 10 µM, first compound 0.0316 µM
[10] = second compound 10 µM, first compound 0.1 µM
[11] = second compound 0.1 µM, first compound 0.000316 µM
[12] = second compound 0.1 µM, first compound 0.001 µM
[13] = second compound 0.1 µM, first compound 0.00316 µM
[14] = second compound 0.1 µM, first compound 0.01 µM
[15] = second compound 0.316 µM, first compound 0.000316 µM
[16] = second compound 0.316 µM, first compound 0.001 µM
[17] = second compound 0.316 µM, first compound 0.00316 µM
[18] = second compound 0.316 µM, first compound 0.01 µM
[19] = second compound 1 µM, first compound 0.000316 µM
[20] = second compound 1 µM, first compound 0.001 µM
[21] = second compound 1 µM, first compound 0.00316 µM
[22] = second compound 1 µM, first compound 0.01 µM
[23] = second compound 3.16 µM, first compound 0.000316 µM
[24] = second compound 3.16 µM, first compound 0.001 µM
[25] = second compound 3.16 µM, first compound 0.00316 µM
[26] = second compound 3.16 µM, first compound 0.01 µM
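Also: spheroids exposed to compounds for seven days before readout.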
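For viability, T/C in this document: 100% = DMSO vehicle control luminescence of the spheroids.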

COC(=O)c1ccc2c(C(=Nc3ccc(N(C)C(=O)CN4CCN(C)CC4)cc3)c3ccccc3)c(O)[nH]c2c1 + CNCc1ccccc1-c1csc(C(C)Nc2nc(C)nc3cc(OC)c(OC)cc23)c1
IC50 (second compound 0.1 µM): > 10000 nM
IC50 (second compound 0.316 µM): > 10000 nM
IC50 (second compound 1 µM): > 10000 nM
IC50 (second compound 3.16 µM): 378 nM
IC50 (second compound 10 µM): < 31.6 nM
viability, T/C [1]: 101%
viability, T/C [2]: 94.3%
viability, T/C (second compound 0.1 µM, first compound 0.316 µM): 96.3%
viability, T/C (second compound 0.1 µM, first compound 1 µM): 91%
viability, T/C (second compound 0.1 µM, first compound 3.16 µM): 83.9%
viability, T/C (second compound 0.1 µM, first compound 10 µM): 95.9%
viability, T/C [3]: 93.1%
viability, T/C [4]: 93.6%
viability, T/C (second compound 0.316 µM, first compound 0.316 µM): 91.9%
viability, T/C (second compound 0.316 µM, first compound 1 µM): 87%
viability, T/C (second compound 0.316 µM, first compound 3.16 µM): 77.4%
viability, T/C (second compound 0.316 µM, first compound 10 µM): 86.2%
viability, T/C [5]: 91.8%
viability, T/C [6]: 96.5%
viability, T/C (second compound 1 µM, first compound 0.316 µM): 84.8%
viability, T/C (second compound 1 µM, first compound 1 µM): 79.9%
viability, T/C (second compound 1 µM, first compound 3.16 µM): 69.2%
viability, T/C (second compound 1 µM, first compound 10 µM): 59%
viability, T/C [7]: 63.6%
viability, T/C [8]: 70.2%
viability, T/C (second compound 3.16 µM, first compound 0.316 µM): 58.8%
viability, T/C (second compound 3.16 µM, first compound 1 µM): 2.44%
viability, T/C (second compound 3.16 µM, first compound 3.16 µM): 0.21%
viability, T/C (second compound 3.16 µM, first compound 10 µM): 0.68%
viability, T/C [9]: 0.16%
viability, T/C [10]: 0.16%
viability, T/C (second compound 10 µM, first compound 0.316 µM): 0.25%
viability, T/C (second compound 10 µM, first compound 1 µM): 0.11%
viability, T/C (second compound 10 µM, first compound 3.16 µM): 0.1%
viability, T/C (second compound 10 µM, first compound 10 µM): 0.16%

CC(C)n1nc(-c2ccc3oc(N)nc3c2)c2c(N)ncnc21 + C=CC(=O)N1CCN(c2nc(OCC3CCCN3C)nc3c2CCN(c2cccc4cccc(C)c24)C3)CC1CC#N
IC50 (second compound 0.0316 µM): 15.3 nM
IC50 (second compound 0.1 µM): 23.2 nM
IC50 (second compound 0.316 µM): 15.3 nM
IC50 (second compound 1 µM): 14.1 nM
IC50 (second compound 3.16 µM): 2.27 nM
viability, T/C (second compound 0.0316 µM, first compound 0.000316 µM): 118%
viability, T/C (second compound 0.0316 µM, first compound 0.001 µM): 109%
viability, T/C (second compound 0.0316 µM, first compound 0.00316 µM): 87.6%
viability, T/C (second compound 0.0316 µM, first compound 0.01 µM): 63.1%
viability, T/C (second compound 0.0316 µM, first compound 0.0316 µM): 30.1%
viability, T/C (second compound 0.0316 µM, first compound 0.1 µM): 21.1%
viability, T/C [11]: 113%
viability, T/C [12]: 115%
viability, T/C [13]: 90.6%
viability, T/C [14]: 68.1%
viability, T/C [1]: 45.2%
viability, T/C [2]: 22.3%
viability, T/C [15]: 111%
viability, T/C [16]: 115%
viability, T/C [17]: 101%
viability, T/C [18]: 61%
viability, T/C [3]: 31.6%
viability, T/C [4]: 23.6%
viability, T/C [19]: 108%
viability, T/C [20]: 118%
viability, T/C [21]: 83%
viability, T/C [22]: 58.8%
viability, T/C [5]: 34.6%
viability, T/C [6]: 23.1%
viability, T/C [23]: 86%
viability, T/C [24]: 52.7%
viability, T/C [25]: 56.7%
viability, T/C [26]: 23.9%
viability, T/C [7]: 29.2%
viability, T/C [8]: 12.6%

CC(C)n1nc(-c2ccc3oc(N)nc3c2)c2c(N)ncnc21 + CNCc1ccccc1-c1csc(C(C)Nc2nc(C)nc3cc(OC)c(OC)cc23)c1
IC50 (second compound 0.1 µM): 18.6 nM
IC50 (second compound 0.316 µM): 19.7 nM
IC50 (second compound 1 µM): 17.4 nM
IC50 (second compound 3.16 µM): 6.04 nM
IC50 (second compound 10 µM): < 0.316 nM
viability, T/C [11]: 110%
viability, T/C [12]: 98.6%
viability, T/C [13]: 89.2%
viability, T/C [14]: 64.8%
viability, T/C [1]: 36.8%
viability, T/C [2]: 23.3%
viability, T/C [15]: 96.1%
viability, T/C [16]: 105%
viability, T/C [17]: 82%
viability, T/C [18]: 73.4%
viability, T/C [3]: 33.8%
viability, T/C [4]: 23.4%
viability, T/C [19]: 88.6%
viability, T/C [20]: 95%
viability, T/C [21]: 80.4%
viability, T/C [22]: 68%
viability, T/C [5]: 31.4%
viability, T/C [6]: 19.5%
viability, T/C [23]: 81.1%
viability, T/C [24]: 76.7%
viability, T/C [25]: 53.8%
viability, T/C [26]: 45.9%
viability, T/C [7]: 25%
viability, T/C [8]: 9.11%
viability, T/C (second compound 10 µM, first compound 0.000316 µM): 0.21%
viability, T/C (second compound 10 µM, first compound 0.001 µM): 0.19%
viability, T/C (second compound 10 µM, first compound 0.00316 µM): 0.17%
viability, T/C (second compound 10 µM, first compound 0.01 µM): 0.14%
viability, T/C [9]: 0.14%
viability, T/C [10]: 0.19%

From PubChem BioAssay AID1963868 (Molecular Pharmacology Branch, DTP, NCI, 2024)
